# Literature values as cited in the CATMoS acute toxicity set (Mansouri et al. 2021).
# Where “and” joins values, the source holds several entries; their conditions need not be identical. Identical values can stand only once.
# Assay: rat acute oral toxicity
# Settings: in vivo
row,Compound,LD50
1,CCOP(=S)(OCC)Oc1cc(C)c(SC)c(C)c1,375 mg/kg
2,CCC1(NC(N)=O)CCCC1,950 mg/kg
3,O=NN(CCCC(F)(F)F)CCCC(F)(F)F,750 mg/kg
4,C(=CNc1ccccc1)C=Nc1ccccc1,1130 mg/kg
5,OCCC1CCN(CCC=C2c3ccc(F)cc3Sc3ccc(C(F)(F)F)cc32)CC1,1.5 mg/kg
6,CNc1nsc2ccccc12,576 mg/kg
7,CC1=CC(=O)/C(=C(/C)O)C(=O)O1,500 mg/kg
8,CC(C)(C)NC[C@H](O)COc1ccccc1C1CCCC1,1260 mg/kg
9,CC(C)CNC(=O)OCC(O)C1COc2ccccc2O1 (configuration not stated),1500 mg/kg
10,CCCCCCOCC(O)CO (configuration not stated),2500 mg/kg
11,O=CCC=O,632 mg/kg
12,Cc1ccc(S(=O)(=O)O)cc1,2570 mg/kg
13,C[N+]1(C)CCC(=C(c2ccccc2)c2ccccc2)CC1,1110 mg/kg
14,CC(=O)CCCCn1c(=O)c2c(ncn2C)n(C)c1=O,1170 mg/kg
15,SCc1ccccc1,493 mg/kg
16,COc1ccc2c(c1)OC(C)(C)[C@H](c1ccccc1)[C@H]2c1ccc(OCCN2CCCC2)cc1 (racemic),800 mg/kg
17,CCC/C=C/C=O,780 mg/kg
18,Cc1ccc(N)cc1[N+](=O)[O-],6860 mg/kg
19,CC(=O)C1=C(O)[C@@H]2[C@H]3c4c[nH]c5cccc(c45)C[C@H]3C(C)(C)N2C1=O,36 mg/kg
20,Cc1ccc(/C(=C\CN2CCCC2)c2ccccn2)cc1,840 mg/kg
21,CCCCC(CC)COC(=O)CS (configuration not stated),303 mg/kg
22,O=C1C=Cc2cc(Br)ccc2C1=O,3900 mg/kg
23,COC(=O)CCC(Cl)C(C)=O (configuration not stated),2050 mg/kg
24,COc1ccc2c(c1)C(N1CCN(C)CC1)=Cc1ccccc1O2,822 mg/kg
25,C[C@]12CC[C@@H]3c4ccc(OC(=O)N(CCCl)CCCl)cc4CC[C@H]3[C@@H]1CC[C@@H]2OP(=O)(O)O,5400 mg/kg

row,Compound,LD50
1,CC(C)=NNC(N)=S,48.5 mg/kg
2,CN1CCN(C[C@H]2C(=O)Nc3ccccc3S[C@H]2c2ccccc2)CC1,830 mg/kg
3,CCOC(=O)N1C(=O)NC(c2ccccc2)(c2ccccc2)C1=O,3500 mg/kg
4,CN(C)c1ccncc1,250 mg/kg
5,C=CCC(CC=C)(C(=O)OCCN(CC)CC)c1ccccc1,1500 mg/kg
6,CCCCOC(=O)CC(C)=O,11300 mg/kg
7,CCOc1cc2c3c([nH]c2cc1N)CCCC3,810 mg/kg
8,CCC(C)CC(CC)Nc1ccc(NC(CC)CC(C)CC)cc1 (configuration not stated),2400 mg/kg
9,CCC1NC(=O)C2C(Cl)C(Cl)CN2C(=O)C(CO)NC(=O)CC(c2ccccc2)NC(=O)C(CO)NC1=O (configuration not stated),5 mg/kg
10,CCC(C)C(C(=O)OCC[N+](C)(CC)CC)c1ccccc1 (configuration not stated),1260 mg/kg
11,CCOP(=S)(OCC)SCc1ccc([N+](=O)[O-])cc1,100 mg/kg
12,FC(F)(F)c1nc2c(Cl)cc(Cl)cc2[nH]1,3.29 mg/kg
13,Cc1ccccc1C(OC1CC2CCC(C1)N2C)c1ccccc1 (configuration not stated),400 mg/kg
14,CCCCC(CC)COCC1CO1 (configuration not stated),7800 mg/kg
15,CCO[Si](CCl)(OCC)OCC,2400 mg/kg
16,CN(C)C1CCCCC1,348 mg/kg
17,Cn1c(=O)sc2cccc(Cl)c21,1940 mg/kg
18,CCCCCCCCCCCCCCCCOP(=O)([O-])OCC[N+](C)(C)C,246 mg/kg
19,CCCC=C(CC)C(=O)O,5660 mg/kg
20,CCC(=O)C1(N2CCCCC2)CCN(CCCC(=O)c2ccc(F)cc2)CC1,780 mg/kg
21,CC(OC(C)c1ccccc1)c1ccccc1 (configuration not stated),9800 mg/kg
22,Nc1nc2ccc(Cl)cc2o1,226 mg/kg
23,COP(=S)(OC)SCC(N)=O,925 mg/kg
24,CCC=C(C)CO,4920 mg/kg
25,CCOC(=O)C1=CN(C(=O)c2ccccc2)C2CCCC(C)N2C1=O (configuration not stated),1640 mg/kg

row,Compound,LD50
1,O=C(CCl)CCl,20 mg/kg
2,O=c1[nH]nc(-c2ccccc2)c2conc12,1000 mg/kg
3,Nc1ccc(-c2ccc(N)cc2)cc1,309 mg/kg
4,Nc1ccc(N=Nc2ccc(O)cc2)cc1,1950 mg/kg
5,OCCOCc1ccccc1,1190 mg/kg
6,CC1(c2ccccc2)OC(C(=O)O)=CC1=O (configuration not stated),3000 mg/kg
7,COP(=O)(OC)Oc1ccc([N+](=O)[O-])c(C)c1,24 mg/kg
8,CCN(C(C)C)C(C)C,317 mg/kg
9,ClCCC(Cl)(Cl)Cl,490 mg/kg
10,CNC(=O)N1C(=O)CN=C(c2ccccc2)c2cc([N+](=O)[O-])ccc21,2280 mg/kg
11,N#CC(Cl)(Cl)Cl,250 mg/kg
12,CNC(=O)N(C)N=O,280 mg/kg
13,COc1cc(C#N)ccc1OP(=S)(OC)OC,2710 mg/kg
14,CN1CCC2(C)c3cc(OC(=O)NCCCCCCCCCCN4CCOCC4)ccc3N(C)C12 (configuration not stated),40 mg/kg
15,CCNc1nc(NC(C)C(C)C)nc(SC)n1 (configuration not stated),3000 mg/kg
16,O=CCCCC(O)C=O (configuration not stated),17000 mg/kg
17,Cc1cccc(NC(=O)c2ccccc2C(=O)O)c1,5230 mg/kg
18,Nc1ccc(N=Nc2ccccc2)c(N)n1,472 mg/kg and 403 mg/kg
19,CC(C)CCCCCCCCCCO,17000 mg/kg
20,CCN(CCO)c1ccccc1,1640 mg/kg
21,CCCCC(=O)OCC(=O)[C@H]1[C@H](C)C[C@H]2[C@@H]3C[C@H](F)C4=CC(=O)C=C[C@]4(C)[C@@]3(F)[C@@H](O)C[C@@]21C,3100 mg/kg
22,CN(C)C(=O)Nc1cccc(OC(F)(F)C(F)F)c1,1260 mg/kg
23,O=C1CCC(c2ccc(-n3ccnc3)cc2)=NN1,125 mg/kg
24,CON=C(Cc1cccnc1)c1ccc(Cl)cc1Cl,1700 mg/kg
25,CC(=O)CCC(C)=O,2080 mg/kg

row,Compound,LD50
1,CCOc1ccccc1N1CCN(CCCc2ccc3c(c2)CCC(=O)N3)CC1,500 mg/kg
2,CCCCCCCCCCCCCCCCSCC(COC)COP(=O)([O-])OCC[N+](C)(C)C (configuration not stated),253 mg/kg
3,O=P1(N(CCCl)CCCl)NCCCO1 (configuration not stated),94 mg/kg
4,OCCCCC(O)CO (configuration not stated),15500 mg/kg
5,CN1CCN(C2=Nc3ccccc3Sc3ccc(Cl)cc32)CC1,280 mg/kg
6,Cc1ccccc1OCC(O)CO (configuration not stated),625 mg/kg
7,O=S(=O)(O)c1ccccc1,2050 mg/kg
8,CNCCc1ccc(OC(=O)C(C)C)c(OC(=O)C(C)C)c1,2930 mg/kg
9,COc1cc(NC(=O)C(N=Nc2ccc(-c3ccc(N=NC(C(C)=O)C(=O)Nc4ccc(C)cc4C)c(Cl)c3)cc2Cl)C(C)=O)c(OC)cc1Cl (configuration not stated),2230 mg/kg
10,CN(C)N,122 mg/kg and 196 mg/kg
11,Nc1nc2cc(F)ccc2o1,1000 mg/kg
12,Cc1cc(C)c(C2C(=O)c3ccccc3C2=O)c(C)c1,1000 mg/kg
13,CSCCC(O)C#N (configuration not stated),48 mg/kg
14,CCOP(=S)(OCC)SC1CCSC1 (configuration not stated),20 mg/kg
15,O=[n+]1c2ccccc2n([O-])c2ccc3ccccc3c21,4620 mg/kg
16,N#CC(CCN1CCC(C(=O)O)(c2ccccc2)CC1)(c1ccccc1)c1ccccc1,149 mg/kg
17,ClC1=C(Cl)C2(Cl)C3C4OC(C5OC54)C3C1(Cl)C2(Cl)Cl (configuration not stated),142 mg/kg
18,CC(C)NC(=O)OC1CCN(CCCC(=O)c2ccc(F)cc2)CC1,310 mg/kg
19,CS(=O)(=O)OCCCN(CCCOS(C)(=O)=O)C1CCCCC1,375 mg/kg
20,CC1(CO)CN(c2ccccc2)NC1=O (configuration not stated),566 mg/kg
21,Cc1ccccc1Oc1cccnn1,3090 mg/kg
22,CC(C)CCOC(CO)CC(C)C (configuration not stated),5410 mg/kg
23,C[N+]1(CCC(O)(c2ccccc2)c2cccs2)CCOCC1 (configuration not stated),2300 mg/kg
24,CN(C)C(CSC#N)CSC#N,125 mg/kg and 82 mg/kg
25,CCSCCOc1ccc([N+](=O)[O-])cc1,826 mg/kg

row,Compound,LD50
1,CCOC(=O)C1(c2ccccc2)CCN(CCOCc2ccccc2)CC1,284 mg/kg
2,CCN=c1nc(Cl)[nH]c(=NC(C)CC)[nH]1 (configuration not stated),3000 mg/kg
3,N=C(N)NCCC[C@H](N)C(=O)O,12000 mg/kg
4,CCOC(=O)C1=C(C)NC(C)=C(C(=O)OCC)C1c1ccccc1C(F)(F)F,1220 mg/kg
5,CCCCCCCCOC(=O)CC(C(=O)OCCCCCCCC)S(=O)(=O)O (configuration not stated),1900 mg/kg
6,CC1CC(C)(C)CC(OOC(C)(C)C)(OOC(C)(C)C)C1 (configuration not stated),12900 mg/kg
7,CCS(=O)CSP(=S)(OC(C)C)OC(C)C (configuration not stated),25 mg/kg
8,COP(=O)(OC)O/C(=C\Cl)c1ccc(Cl)cc1Cl,97.5 mg/kg
9,CCC(=O)O[C@@H]1CC(=O)O[C@H](C)C/C=C/C=C/[C@H](O)[C@H](C)C[C@H](CC=O)[C@H](O[C@@H]2O[C@H](C)[C@@H](O[C@H]3C[C@@](C)(O)[C@@H](OC(=O)CC)[C@H](C)O3)[C@H](N(C)C)[C@H]2O)[C@H]1OC,9600 mg/kg
10,O=c1oc2cc(Cl)ccc2n1CCl,2350 mg/kg
11,CN(CCO)c1ccc(N=Nc2c(Cl)cc([N+](=O)[O-])cc2Cl)cc1,2820 mg/kg
12,OCC1CC2CCC1C2 (configuration not stated),1600 mg/kg
13,CC(C)=C1CCC(C)CC1=O (configuration not stated),470 mg/kg
14,COC(N)=O,2500 mg/kg
15,CCCCCCCCCCCCN1CC(C)OC(C)C1 (configuration not stated),3500 mg/kg
16,C1CNCCNC1,2830 mg/kg
17,C=COCCOCCCC,3100 mg/kg
18,O=C1NCC2(CCN(CCc3ccccc3)CC2)O1,980 mg/kg and 437 mg/kg
19,O=C(NP(=O)(N1CC1)N1CC1)c1ccccc1,50 mg/kg
20,CCOP(=O)(NC)Oc1ccc(SC)c(C)c1 (configuration not stated),5 mg/kg
21,CCN(CC)CCN1C(=O)CN=C(c2ccccc2F)c2cc(Cl)ccc21,879 mg/kg and 980 mg/kg and 978 mg/kg
22,CC(C)c1cccc(OC(=O)N(C)N=O)c1,400 mg/kg
23,CCC(C)C(CN(C)C)c1cc(F)ccc1OC (configuration not stated),300 mg/kg
24,Cc1ccc(C)c(C)c1C,6410 mg/kg
25,Oc1ccc(Sc2ccc(O)cc2)cc1,3360 mg/kg

row,Compound,LD50
1,Oc1c(Cl)cnc(Cl)c1Cl,80 mg/kg
2,CC(C)(C)c1cc(CCC(=O)NCCN)cc(C(C)(C)C)c1O,1560 mg/kg
3,O=C(OCCCOC(=O)c1ccccc1)c1ccccc1,24000 mg/kg
4,C#CCN(C)Cc1ccccc1,250 mg/kg and 300 mg/kg
5,CC(=O)OCC(=O)NCCCOc1cccc(CN2CCCCC2)c1,755 mg/kg
6,COC(=O)Cc1cccc2ccccc12,1900 mg/kg
7,COP(=O)(OC)C(O)(C(F)F)C(F)F,9 mg/kg
8,C=C(CCl)CCl,150 mg/kg
9,c1ccc([C@H]2CN3CCSC3=N2)cc1,480 mg/kg
10,CC(=O)OC(C)C(Cl)(Cl)Cl (configuration not stated),900 mg/kg
11,COCOC,6420 mg/kg
12,CC(O)CN(CC(C)O)CC(C)O (configuration not stated),4730 mg/kg
13,OCC1CCCO1 (configuration not stated),1600 mg/kg
14,CN=C(O)O/N=C(/C)C(C)(C)[N+](=O)[O-],13 mg/kg
15,COc1cc([N+](=O)[O-])ccc1N,997 mg/kg
16,Fc1c(Cl)c(F)c2nc(C(F)(F)F)[nH]c2c1Cl,1.67 mg/kg
17,COc1ccc(C(O)(c2cncnc2)C2CC2)cc1 (configuration not stated),4500 mg/kg
18,COP(N)(=S)Oc1ccccc1C(=O)OC(C)C (configuration not stated),50 mg/kg
19,Clc1cccc(Cl)c1N=C1NCCN1,126 mg/kg
20,CO[C@@H]1[C@@H](O)[C@@H](O)[C@H](O[C@@H]2C=C3CC[C@@H]4[C@H](CC[C@]5(C)[C@@H](c6ccc(=O)oc6)CC[C@]45O)[C@@]3(C)CC2)O[C@H]1C,79 mg/kg
21,C=C(Cl)C(Cl)=C(Cl)Cl,421 mg/kg
22,Cc1c(F)c(N2CCNC(C)C2)cc2c1c(=O)c(C(=O)O)cn2C1CC1 (configuration not stated),3030 mg/kg
